According to patent publication US20090029992A1, “SUBSTITUTED PYRAZOLE COMPOUNDS” (priority 2007, published 2009):

Assays:
[1] = biological target: T1, N-terminal His-tagged human Src (Homo sapiens, UniProt P12931); assay: Src kinase inhibition assay (33P-ATP filter assay); format: biochemical
T1 construct: His (N); purchased Upstate USA Inc, 706 Forest Street, Charlottesville, Va
Description: (§1) Compounds were assayed for Src kinase inhibitory activity using N-terminal His-tagged human Src (Upstate USA Inc, 706 Forest Street, Charlottesville, Va.). Serial dilutions of compound were assayed in a final reaction volume of 25 μL by incubating a solution of the above Src kinase (5-10 mU), 8 mM MOPS (3-(N-morpholino) propanesulfonic acid) pH 7.0, 0.2 mM EDTA (ethylenediamine tetracetic acid), 250 μM amino acid sequence KVEKIGEGTYGVVYK (Upstate USA Inc, 706 Forest Street, Charlottesville, Va.), and 10 mM magnesium acetate and [γ-^33P-ATP] (specific activity of about 500 cpm/μmol, concentration as required). The reaction was initiated by the addition of the magnesium acetate and [γ-^33P-ATP] mixture. After incubation for 40 minutes at room temperature, the reaction was stopped by the addition of 5 μL of a 3% phosphoric acid solution. A 10 μL aliquote of the reaction was then spotted onto a P30 filtermat (PerkinElmer, Wellesley, Mass.) and washed three times for five minutes in 75 mM phosphoric acid and once in methanol prior to drying and scintillation counting. Inhibition of Src activity was determined by comparison to assays that contained no inhibitor.

[2] = biological target: T2, N-terminal His6-tagged recombinant human KDR, residues 790-end (Homo sapiens, UniProt P35968); assay: KDR kinase inhibition assay (33P-ATP filter assay); format: biochemical
T2 construct: recombinant human KDR, residues 790-end; His6 (N); purchased Upstate USA Inc, 706 Forest Street, Charlottesville, Va
Description: as §1, with “for KDR” for “for Src”, “N-terminal His6-tagged recombinant” for “N-terminal His-tagged”, “human KDR, residues 790-end” for “human Src”, “above KDR” for “above Src”, “acid), 0.33 mg/mL myelin basic protein” for “acid), 250 μM amino acid sequence KVEKIGEGTYGVVYK”, “of KDR” for “of Src”

HCT116 cells = assay: Whole cell cytotoxicity assay, Sulforhodamine B; format: cell-based; conditions: Homo sapiens, HCT-116, HCT116, 96 hours incubation, SRB; for IC50: read-out: IC50 values in this assay (HCT116 cell growth); for GI50: read-out: GI50 HCT116 cell growth
Description: Human tumor-derived cell lines, HCT116 or MCF7 (ATCC) were plated in a 96 well plate in DMEM containing 10% fetal bovine serum and 2 mM L-glutamine at a density of 500 HCT116 cells or 1,000 MCF7 cells per well and incubated at 37° C., 5% CO2, for 24 hours prior to the addition of experimental compounds. Compounds were added using the dilution series indicated to duplicate plates and the cells were incubated in media plus compound for 96 hours. An additional plate was fixed in 10% TCA at the time of the addition of compound to provide a measurement of the cell population at time zero, the time of drug addition. Following the 96 hour incubation, cells were fixed in situ by gently aspirating off the culture media and then adding 50 ul of ice cold 10% TCA per well and incubation at 4° C. for 60 minutes. The plates were washed with tap water five times and allowed to air dry for 5 minute. 50 ul of a 0.4% (w/v) Sulforhodamine B solution in 1% (v/v) acetic acid was added per well and the cells were incubated for 30 minutes at room temperature. Following staining, plates were washed four times with 1% acetic acid to remove any unbound dye and then allowed to air dry for 5 minutes. The stain was solubilized with 100 ul of 10 mM Tris pH 10.5 per well and placed on an orbital rotator for 5 minutes. The absorbance was read at 570 nm. Percentage growth was calculated using the absorbance readings from the time zero plate (Tz) and the dilution series plate […] which included a column of cells grown in media without compound as a control (C) using the formulas:
[(Ti−Tz)/(C−Tz)]×100 for concentrations for which Ti>/=Tz
[(Ti−Tz)/Tz]×100 for concentrations for which Ti<Tz.
Three dose response parameters were calculated for each experimental agent. Growth inhibition of 50% (GI50) was calculated from [(Ti−Tz)/(C−Tz)]×100=50, which was the drug concentration resulting in a 50% reduction in the net protein increase (as measured by SRB staining) in control cells during the drug incubation. The drug concentration resulting in total growth inhibition (TGI) was calculated from Ti=Tz. The LC50 (concentration of drug resulting in a 50% reduction in the measured protein at the end of the drug treatment as compared to that at the beginning) indicating a net loss of cells following treatment ws calculated from [(Ti−Tz)/Tz]×100=−50. Values are calculated for each of these three parameters if the level of activity was reached; however, if the effect was not reached or was exceeded, the value for that parameter is expressed as greater or less than the maximum or minimum concentration tested.

[3] = biological target: T3, N-terminal GST-tagged recombinant human Flt3, residues 564-end (Homo sapiens, UniProt P36888); assay: Flt3 kinase inhibition assay (33P-ATP filter assay); format: biochemical
T3 construct: recombinant human Flt3, residues 564-end; GST (N); purchased Upstate USA Inc, 706 Forest Street, Charlottesville, Va
T3 sequence (P36888 564-993 limits assumed): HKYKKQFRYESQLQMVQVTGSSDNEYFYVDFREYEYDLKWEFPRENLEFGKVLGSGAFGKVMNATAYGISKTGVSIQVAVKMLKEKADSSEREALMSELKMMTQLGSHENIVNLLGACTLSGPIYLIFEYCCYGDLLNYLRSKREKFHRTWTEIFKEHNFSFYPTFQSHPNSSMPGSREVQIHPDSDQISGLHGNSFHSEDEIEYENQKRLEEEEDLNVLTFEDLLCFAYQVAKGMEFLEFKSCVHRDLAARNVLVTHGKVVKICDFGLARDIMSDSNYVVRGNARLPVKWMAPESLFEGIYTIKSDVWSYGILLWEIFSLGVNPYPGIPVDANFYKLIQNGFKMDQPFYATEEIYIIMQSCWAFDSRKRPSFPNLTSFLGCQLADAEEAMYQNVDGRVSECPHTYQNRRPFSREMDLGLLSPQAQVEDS
Description: Compounds were assayed for Flt3 kinase inhibitory activity using N-terminal GST-tagged recombinant human Flt3, residues 564-end (Upstate USA Inc, 706 Forest Street, Charlottesville, Va.). Serial dilutions of compound were assayed in a final reaction volume of 25 μL by incubating a solution of the above Flt3 kinase (5-10 mU), 8 mM MOPS (3-(N-morpholino) propanesulfonic acid) pH 7.0, 0.2 mM EDTA (ethylenediamine tetracetic acid), 50 μM amino acid sequence EAIYAAPFAKKK (Upstate USA Inc, 706 Forest Street, Charlottesville, Va.), and 10 mM magnesium acetate and [γ-^33P-ATP] (specific activity of about 500 cpm/μmol, concentration as required). The reaction was initiated by the addition of the magnesium acetate and [γ-^33P-ATP] mixture. After incubation for 40 minutes at room temperature, the reaction was stopped by the addition of 5 μL of a 3% phosphoric acid solution. A 10 μL aliquote of the reaction was then spotted onto a P30 filtermat (PerkinElmer, Wellesley, Mass.) and washed three times for five minutes in 75 mM phosphoric acid and once in methanol prior to drying and scintillation counting. Inhibition of Flt3 activity was determined by comparison to assays that contained no inhibitor.

[4] = group with IC50 greater than 100 nM

T1 sequence (P12931 whole entry): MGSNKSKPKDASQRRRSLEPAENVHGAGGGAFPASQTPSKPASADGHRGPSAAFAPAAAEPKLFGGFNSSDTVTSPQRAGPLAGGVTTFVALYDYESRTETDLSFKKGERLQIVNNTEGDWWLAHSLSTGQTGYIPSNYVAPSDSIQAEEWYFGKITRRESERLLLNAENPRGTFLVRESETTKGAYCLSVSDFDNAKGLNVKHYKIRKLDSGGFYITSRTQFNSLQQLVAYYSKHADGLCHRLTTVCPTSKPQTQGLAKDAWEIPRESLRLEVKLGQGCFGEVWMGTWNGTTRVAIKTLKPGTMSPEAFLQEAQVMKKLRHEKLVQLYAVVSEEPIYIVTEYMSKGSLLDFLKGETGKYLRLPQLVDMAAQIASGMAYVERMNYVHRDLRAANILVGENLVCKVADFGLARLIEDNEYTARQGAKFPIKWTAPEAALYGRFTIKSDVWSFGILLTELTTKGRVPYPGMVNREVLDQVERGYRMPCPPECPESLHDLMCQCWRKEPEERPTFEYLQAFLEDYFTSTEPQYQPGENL
T2 sequence (P35968 790-1356 limits assumed): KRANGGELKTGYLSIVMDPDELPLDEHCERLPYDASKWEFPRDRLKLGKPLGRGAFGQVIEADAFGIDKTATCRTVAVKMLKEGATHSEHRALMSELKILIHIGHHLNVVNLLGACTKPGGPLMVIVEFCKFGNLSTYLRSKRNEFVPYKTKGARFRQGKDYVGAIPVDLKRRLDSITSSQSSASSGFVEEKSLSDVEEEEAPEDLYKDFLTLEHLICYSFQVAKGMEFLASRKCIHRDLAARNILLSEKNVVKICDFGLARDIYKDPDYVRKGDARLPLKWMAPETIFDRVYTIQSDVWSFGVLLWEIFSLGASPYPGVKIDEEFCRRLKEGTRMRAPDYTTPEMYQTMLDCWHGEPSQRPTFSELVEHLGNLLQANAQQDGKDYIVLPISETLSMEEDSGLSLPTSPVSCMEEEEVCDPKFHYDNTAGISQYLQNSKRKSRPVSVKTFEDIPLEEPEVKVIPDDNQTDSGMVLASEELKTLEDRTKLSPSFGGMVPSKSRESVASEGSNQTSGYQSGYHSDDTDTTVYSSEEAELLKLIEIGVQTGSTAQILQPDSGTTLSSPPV

Row | SMILES | IC50 (HCT116 cells) [nM] | IC50 [2, 4] [nM] | IC50 ([3]; 40 minutes at room temperature) [nM] | also measured
1 | Cc1cccc(-c2nc(Nc3cc(C)[nH]n3)cc(NC3CCOCC3)n2)c1 [Compound 26, N^4-(5-methyl-1H-pyrazol-3-yl)-N^6-(tetrahydro-2H-pyran-4-yl)-2-m-tolylpyrimidine-4,6-diamine] | 1000 to 10000 |  |  | IC50 [1, 4]: ≤ 1000 nM; IC50 ([2]; 40 minutes at room temperature): ≤ 100 nM
2 | COc1ccccc1-c1nc(Nc2cc(C)[nH]n2)cc(NC2CCOCC2)n1 [Compound 30, 2-(2-methoxyphenyl)-N^4-(5-methyl-1H-pyrazol-3-yl)-N^6-(tetrahydro-2H-pyran-4-yl)pyrimidine-4,6-diamine] |  | ≤ 1000 |  | 
3 | COc1ccccc1-c1nc(Nc2cc(C)[nH]n2)cc(N2CCN(C)CC2)n1 [Compound 43, 2-(2-methoxyphenyl)-N-(5-methyl-1H-pyrazol-3-yl)-6-(4-methylpiperazin-1-yl)pyrimidin-4-amine] | 1000 to 10000 | ≤ 1000 | ≤ 100 | IC50 [1, 4]: ≤ 1000 nM
4 | COc1ccccc1-c1nc(Nc2cc(C)[nH]n2)cc(N(C)CCN(C)C)n1 [Compound 56, N^4-(2-(dimethylamino)ethyl)-2-(2-methoxyphenyl)-N^4-methyl-N^6-(5-methyl-1H-pyrazol-3-yl)pyrimidine-4,6-diamine] |  | ≤ 1000 | ≤ 100 | GI50 (HCT116 cells): ≤ 1000 nM
5 | COCCN(C)c1cc(Nc2cc(C)[nH]n2)nc(-c2ccccc2OC)n1 [Compound 69, N^4-(2-methoxyethyl)-2-(2-methoxyphenyl)-N^4-methyl-N^6-(5-methyl-1H-pyrazol-3-yl)pyrimidine-4,6-diamine] | 1000 to 10000 | ≤ 1000 |  | IC50 [3, 4]: ≤ 1000 nM
6 | Cc1cc(Nc2cc(N3CCN(C)CC3)nc(-c3ccc(S(C)(=O)=O)cc3)n2)n[nH]1 [Compound 95, N-(5-methyl-1H-pyrazol-3-yl)-6-(4-methylpiperazin-1-yl)-2-(4-(methylsulfonyl)phenyl)pyrimidin-4-amine] |  |  |  | GI50 (HCT116 cells): ≤ 1000 nM
7 | COCCN(C)c1cc(Nc2cc(C)[nH]n2)nc(-c2ccc(C(C)(C)C)cc2)n1 [Compound 115, 2-(4-tert-butylphenyl)-N^4-(2-methoxyethyl)-N^4-methyl-N^6-(5-methyl-1H-pyrazol-3-yl)pyrimidine-4,6-diamine] | 1000 to 10000 |  | ≤ 100 | IC50 [1, 4]: ≤ 1000 nM
8 | Cc1cc(Nc2cc(N(C)CCN(C)C)nc(-c3cccc4c3OCCO4)n2)n[nH]1 [Example 143, 2-(2,3-dihydrobenzo[b][1,4]dioxin-5-yl)-N^4-(2-(dimethylamino)ethyl)-N^4-methyl-N^6-(5-methyl-1H-pyrazol-3-yl)pyrimidine-4,6-diamine] | 1000 to 10000 | ≤ 1000 | ≤ 100 | 
9 | Cc1cc(Nc2cc(N3CCN(C)CC3)nc(-c3cc(C(F)(F)F)cc(C(F)(F)F)c3)n2)n[nH]1 [Example 173, 2-(3,5-bis(trifluoromethyl)phenyl)-N-(5-methyl-1H-pyrazol-3-yl)-6-(4-methylpiperazin-1-yl)pyrimidin-4-amine] |  |  | ≤ 100 | GI50 (HCT116 cells): ≤ 1000 nM
10 | CCc1ccccc1-c1nc(Nc2cc(C)[nH]n2)cc(N(C)CCOC)n1 [Example 187, 2-(2-ethylphenyl)-N^4-(2-methoxyethyl)-N^4-methyl-N^6-(5-methyl-1H-pyrazol-3-yl)pyrimidine-4,6-diamine] |  | ≤ 1000 | ≤ 100 | IC50 ([1]; 40 minutes at room temperature): ≤ 100 nM
11 | Cc1cc(Nc2cc(N3CCN(C)CC3)nc(-c3c(C)cccc3C)n2)n[nH]1 [Example 194, 2-(2,6-dimethylphenyl)-N-(5-methyl-1H-pyrazol-3-yl)-6-(4-methylpiperazin-1-yl)pyrimidin-4-amine] |  |  |  | IC50 [3, 4]: ≤ 1000 nM
12 | Cc1cc(Nc2cc(N(C)CCN(C)C)nc(-c3c(C)cccc3C)n2)n[nH]1 [Example 195, N^4-(2-(dimethylamino)ethyl)-2-(2,6-dimethylphenyl)-N^4-methyl-N^6-(5-methyl-1H-pyrazol-3-yl)pyrimidine-4,6-diamine] |  |  |  | IC50 [3, 4]: ≤ 1000 nM
13 | Cc1cc(Nc2cc(NC3CCOCC3)nc(-c3c(C)cccc3C)n2)n[nH]1 [Example 199, 2-(2,6-dimethylphenyl)-N^4-(5-methyl-1H-pyrazol-3-yl)-N^6-(tetrahydro-2H-pyran-4-yl)pyrimidine-4,6-diamine] |  |  |  | IC50 [3, 4]: ≤ 1000 nM
14 | COCCN(C)c1cc(Nc2cc(C)[nH]n2)nc(-c2cc(C)ccc2C)n1 [Example 202, 2-(2,5-dimethylphenyl)-N^4-(2-methoxyethyl)-N^4-methyl-N^6-(5-methyl-1H-pyrazol-3-yl)pyrimidine-4,6-diamine] | 1000 to 10000 |  | ≤ 100 | 
15 | Cc1ccc(C)c(-c2nc(Nc3cc(C)[nH]n3)cc(N(C)CCN(C)C)n2)c1 [Example 207, N^4-(2-(dimethylamino)ethyl)-2-(2,5-dimethylphenyl)-N^4-methyl-N^6-(5-methyl-1H-pyrazol-3-yl)pyrimidine-4,6-diamine] |  | ≤ 1000 | ≤ 100 | 
